Test results as given in patent publication US20250197356A1, “METHOD FOR SYNTHESIZING NUCIFERINE OR DERIVATIVE THEREOF, DERIVATIVE OF NUCIFERINE AND USE THEREOF” (HUAQIAO UNIVERSITY, priority 2022, published 2025).

How the values were obtained:
Format in all cases: in vivo, SD rats
hyperlipidemia rats [1] = experiment: Liver and kidney indexes in high-fat diet hyperlipidemia rats; settings: 20 mg/(kg d) by gastric gavage, 4 weeks, x ± s, n = 9
Text: (§1) Animals: 54 SPF-grade SD rats, weighing 120±10 g, provided by Laboratory Animal Business Department, Shanghai Family Planning Research Institute, China, Animal license number: SCXK(Shanghai)2018-0006.
(§2) Modeling scheme: 54 adult rats of 120±10 g were selected and fed adaptively for three days. They were then randomly divided to 6 groups, 9 animals for each group. They were blank control group, model group, positive control group, nuciferine group, and nuciferine structural modification group. The blank control group was fed with normal diet. […] The feeding and modeling time was 5 weeks.
(§3) Liver tissue sample collection: the rats were killed by dislocation, and the liver was taken out immediately after death, which was observed by naked eye to find out whether there was abnormal color and lesions, and was then rinsed with ice normal saline. The left lobe of the liver was quickly cut into small pieces and fixed in 10% formaldehyde overnight for sectioning. The tissue of the right lobe of the liver was quickly wrapped in tin box and stored at −80° C. for later use.

hyperlipidemia rats [2] = experiment: Serum biochemical indicators in high-fat diet hyperlipidemia rats; settings: serum, 20 mg/(kg d) by gastric gavage, 4 weeks; for ALT (U/L) / AST (U/L) / Bun / Cr: x ± s, n = 9
Text: as §1
(§4) Drug to be tested: Nuciferine purchased from Shanghai Aladdin Biochemical Technology Co., Ltd., China, and its derivatives (purity >99%) that were synthesized in the laboratory by the methods of Examples 2-7.
(§5) Other reagents: AST, ALT, TC, TG, NEFA, Bun, Cr, CAT, GSH-Px, GSH, MDA test kits, purchased from Nanjing Jiancheng Bioengineering Institute, China; HL and PL test kits, purchased from Jianglai Biotechnology Co., Ltd., China; experimental reagents such as anhydrous ethanol, xylene, isopropanol neutral gum, purchased from Sinopharm Chemical Reagent Co., Ltd., China; HE dye solution, DAB color development agent, and oil red O dye solution, purchased from KeyGEN Biotechnology Co., Ltd, China; Antibodies IL-6 and TNF-α, purchased from Abcam Limited.
as §2, with “weeks. Within 4 weeks after modeling, continuous administration was performed: the blank control group and model group were given 0.2 mL of distilled water by gastric gavage; the positive control group was administrated 20 mg/(kg d) of simvastatin; while the treatment group was administrated 20 mg/(kg d) of nuciferine or 20 mg/(kg d) of a derivative of nuciferine (compounds 6a-6f).” for “weeks.”
Blood sample collection: 24 h after the last gastric gavage administration, eyeballs were taken out and blood was drawn. Whole blood was collected in an EP tube, and centrifuged at 3000 r/min and 4° C. for 10 min, and the supernatant was collected and stored at −20° C. for blood biochemical indicator test.
(§6) Biochemical indicator determination: indicators AST, ALT, TC, TG, NEFA, Bun, Cr, CAT, GSH-Px, GSH, MDA, HL, PL were determined according to the instructions of the kits.

hyperlipidemia rats [3] = experiment: Liver tissue homogenate biochemical indicators in high-fat diet hyperlipidemia rats; settings: liver tissue, 20 mg/(kg d) by gastric gavage, 4 weeks, x ± s, n = 9
Text: as §1, §4, §5
as §2, with “weeks. Within 4 weeks after modeling, continuous administration was performed: the blank control group and model group were given 0.2 mL of distilled water by gastric gavage; the positive control group was administrated 20 mg/(kg d) of simvastatin; while the treatment group was administrated 20 mg/(kg d) of nuciferine or 20 mg/(kg d) of a derivative of nuciferine (compounds 6a-6f).” for “weeks.”
as §3
Preparation of 10% liver homogenate: the liver wrapped in tin box and stored in the ultra-low temperature freezer at −80° C. was taken out, and quickly placed on an ice box. 0.2 g of liver tissue was accurately taken, and ice normal saline with a volume 9 times that of the liver issue was added thereto. 10% tissue homogenate was formed by grounding and mixing, and then centrifuged at 3000 r/min and 4° C. for 10 min. The supernatant was collected for later use.
as §6

hyperlipidemia rats [4] = experiment: Liver appearance and HE histopathological observation in hyperlipidemia rats; settings: compared with the model group, 20 mg/(kg d)
Text: as §1, §2, §3

COc1cc2c3c(c1OC)-c1ccccc1CC3N(C(=O)c1ccccc1)CC2 (stereo not drawn) [Compound 6a, Benzoylnuciferine]
Kidney index (%) (hyperlipidemia rats [1]): 0.68 ± 0.04 % | Liver index (%) (hyperlipidemia rats [1]): 4.58 ± 0.29 % | LDL-C (hyperlipidemia rats [2]): 0.54 ± 0.09 mmol/L | TC (hyperlipidemia rats [2]): 1.94 ± 0.18 mmol/L | TG (hyperlipidemia rats [2]): 0.56 ± 0.05 mmol/L | ALT (U/L) (hyperlipidemia rats [2]): 15.46 ± 8.79 U/L | AST (U/L) (hyperlipidemia rats [2]): 7.85 ± 2.23 U/L | Bun (hyperlipidemia rats [2]): 3.16 ± 0.17 mmol/L | Cr (hyperlipidemia rats [2]): 51.82 ± 7.06 µmol/L | CAT (U/mgprot) (hyperlipidemia rats [3]): 26.06 ± 2.69 U/mgprot | GSH (μmol/gprot) (hyperlipidemia rats [3]): 360.02 ± 43.63 μmol/gprot | GSH-Px (U/mgprot) (hyperlipidemia rats [3]): 550.96 ± 60.97 U/mgprot | HL (U/mgprot) (hyperlipidemia rats [3]): 0.35 ± 0.03 U/mgprot | LPL (U/mgprot) (hyperlipidemia rats [3]): 0.27 ± 0.03 U/mgprot | MDA (nmol/mgprot) (hyperlipidemia rats [3]): 0.94 ± 0.27 nmol/mgprot | NEFA (μmol/g prot) (hyperlipidemia rats [3]): 107.69 ± 6.44 μmol/g prot | TG (mmol/g prot) (hyperlipidemia rats [3]): 0.10 ± 0.02 mmol/g prot | Liver appearance (photographs, FIG. 8) (hyperlipidemia rats [4]): more brittle

COc1cc2c3c(c1OC)-c1ccccc1CC3N(C(=O)c1ccc(F)cc1)CC2 (stereo not drawn) [Compound 6b, p-Fluorobenzoylnuciferine]
Kidney index (%) (hyperlipidemia rats [1]): 0.68 ± 0.02 % | Liver index (%) (hyperlipidemia rats [1]): 4.58 ± 0.23 % | LDL-C (hyperlipidemia rats [2]): 0.68 ± 0.16 mmol/L | TC (hyperlipidemia rats [2]): 2.01 ± 0.14 mmol/L | TG (hyperlipidemia rats [2]): 0.57 ± 0.08 mmol/L | ALT (U/L) (hyperlipidemia rats [2]): 16.43 ± 9.51 U/L | AST (U/L) (hyperlipidemia rats [2]): 7.91 ± 2.21 U/L | Bun (hyperlipidemia rats [2]): 3.48 ± 0.24 mmol/L | Cr (hyperlipidemia rats [2]): 53.90 ± 1.81 µmol/L | CAT (U/mgprot) (hyperlipidemia rats [3]): 25.90 ± 4.29 U/mgprot | GSH (μmol/gprot) (hyperlipidemia rats [3]): 365.04 ± 71.78 μmol/gprot | GSH-Px (U/mgprot) (hyperlipidemia rats [3]): 532.14 ± 30.92 U/mgprot | HL (U/mgprot) (hyperlipidemia rats [3]): 0.51 ± 0.05 U/mgprot | LPL (U/mgprot) (hyperlipidemia rats [3]): 0.29 ± 0.10 U/mgprot | MDA (nmol/mgprot) (hyperlipidemia rats [3]): 1.03 ± 0.33 nmol/mgprot | NEFA (μmol/g prot) (hyperlipidemia rats [3]): 106.32 ± 22.95 μmol/g prot | TG (mmol/g prot) (hyperlipidemia rats [3]): 0.13 ± 0.02 mmol/g prot | Liver appearance (photographs, FIG. 8) (hyperlipidemia rats [4]): more brittle
